Laboratory results published in patent publication US20080311103A1, “Anti-Inflammatory Peptides and Methods of Use Thereof” (YEDA RESEARCH AND DEVELOPMENT CO. LTD. at THE WEIZMANN …, priority 2004, published 2008).
Read-outs that look alike come from different tables or passages of the source. Ends that are not written are not given here.

Tests used:
[1] = system: BALB/C mice; experiment: TNBS-induced colitis model of inflammatory bowel disease (IBD); format: in vivo, mouse; conditions: 200 μg/mouse SC daily; day 7 after TNBS
Method: BALB/C mice, which were anesthetized for 5-10 min, received by intrarectal administration, 30 μl of a solution of 2,4,6-trinitrobenzene sulfonic acid (TNBS; 100 mg/kg) dissolved in 0.9% NaCl and mixed with an equal volume of ethanol (50% ethanol). Animals were killed 7 days after TNBS administration.
Wound fluid peptides were administered once daily by subcutaneous (SC) administration starting 1 day before the induction of colitis and every day for the next 7 days as follows:
Treatment with the wound fluid peptides was evaluated at day 7 by determination of macroscopic inflammation scores. The colon of each mouse was examined under a dissecting microscope to evaluate the macroscopic lesions according to the Wallace criteria. The Wallace score lists macroscopic colon lesions on a scale from 0 to 10 based on features reflecting inflammation, such as hyperemia, thickening of the bowel, and extent of ulceration (Wallace, J. L., et al. 1989, Gastroenterology, 96:29).

[2] = system: mice sensitized with oxazolone; format: in vivo, mouse; conditions: ear measured 24 hours after oxazolone challenge, BALB/c mice
Method: Groups of 5 female inbred BALB/c mice (The Jackson Laboratory, Bar Harbor, Me.) were sensitized on the shaved abdominal skin with 2% oxazolone (100 μl) dissolved in acetone/olive oil [4:1 (vol/vol)] applied topically. Delayed type hypersensitivity (DTH) was elicited 5 days later by challenging the mice with 0.5% oxazolone in acetone/olive oil (10 μl given topically to each side of the ear). A constant area of the ear was measured immediately before and 24 hours after the challenge using a Mitutoyo engineer's micrometer. The percent inhibition of DTH is calculated as follows:
% Inhibition=[1-{(treated−negative control)/(positive control−negative control)}]×100.
The positive control is the DTH reaction to oxazolone elicited in sensitized mice without treatment. The negative control is the background swelling produced by the oxazolone antigen in naïve non-sensitized mice.
Peptides Nos. 1-5 were given to the mice by mini perfusion pumps (alzet osmotic pump model 2001), which contained the indicated peptide (40 μg; 200 μl). The pumps were implanted under the mouse skin one day before oxazolone sensitization and they released the peptide in a rate of 1 μl per hour (0.2 μg/hour) for 7 days.
Peptides Nos. 6-10 were given to the mice by subcutaneously injection (1 μg or 10 μg per mouse), every day, starting at one day before oxazolone sensitization and ending at day 5 post DTH initiation.

[3] = system: anti-CD3 antibody induced IFNγ secretion from T cells; experiment: IFNγ secretion by anti-CD3 activated T cells; format: cell-based, human; design: concentration or dose not given beside the values; conditions: 24 hours; ELISA; FIG. 7B
Method: (§1) Human T cells were purified and maintained in culture (RPMI containing 10% FCS, 1% Pyruvate, 1% glutamine, 1% antibiotics, 7.5% CO2, humidified atmosphere) for 15 hr before they were transferred to RPMI and activated (2 hr, 37° C.) with the indicated concentrations of the peptides. The cells were then plated (1.5×10^6 cells/0.5 ml/well) in 24 wells plates (non-tissue culture grade) precoated with anti-CD3 mAb in order to stimulate the cells to secrete cytokines. After 24 hours, the supernatants were collected and their cytokine content (TNFα and IFNγ) was determined by ELISA using anti-IFNγ and anti TNFα mAb (Pharmingen; San Diego, Calif.) according to the manufacturer's instructions.

[4] = system: anti-CD3 antibody induced TNFα secretion from T cells; experiment: TNFα secretion by anti-CD3 activated T cells; format: cell-based, human; conditions: peptide 100 ng/ml; 24 hours; ELISA; FIG. 7A
Method: as §1

[5] = system: NF-κB; experiment: Nuclear translocation of NF-κB in T cells (Western blot); format: cell-based; conditions: peptide 100 ng/ml for 2 hours, then anti-CD3 mAb 24 hr; human T cells
Description: To address the modulatory role of the wound fluid peptides on the signal transduction cascade leading to regulation of T-cell secretion of TNF-α(and IFN-γ, the nuclear translocation of NF-κB was detected by probing nuclear and cytoplasmic T-cell extracts using mAb specific for the p65 subunit of NF-κB. The nuclear protein Lamin B was used as continuatively expressed control protein for the quantification of protein amounts.
Human T cells. T cells were purified from the peripheral blood of healthy human donors (Blood Bank; Tel-Hashomer, Israel). The whole blood was incubated (20 min, 22° C.) with RosetteSep™ human T-cell enrichment cocktail (StemCell Technologies, Vancouver, BC, Canada). The remaining unsedimented cells were then loaded onto Lymphocyte Separation Medium (ICN Biomedicals; Belgium), isolated by density centrifugation, and washed with PBS. The purified cells (>95% CD3^+ T cells) so obtained were cultured in RPMI containing antibiotics and 10% heat-inactivated FCS. Western blot analysis of T-cell nuclear extracts. Purified T cells (5×10^6) were preincubated with the peptides (100 ng/ml) for 2 hours (37° C. in a 7% CO2, humidified atmosphere). The cells were then replated in 24-well plates pre-coated with anti-CD3 mAb for 24 hr (37° C. in a 7% CO2, humidified atmosphere). T cells were lysed in 10 mM HEPES, 1.5 mM MgCl2, 1 mM dithiothreitol (DTT), 1 mM PMSF, 0.5% Nonidet P-40. The lysates were incubated on ice for 10 min and centrifuged at 2000 rpm for 10 min at 4° C. The supernatants (cytoplasmic extracts) were transferred and the pellet (nuclei) was suspended in buffer containing 30 mM HEPES, 450 mM NaCl, 25% Glycerol, 0.5 mM EDTA, 6 mM DTT, 12 mM MgCl2 1 mM PMSF, 10 μg/ml leupeptin, 10 μg/ml pepstatin, 1% phosphatase inhibitor cocktail, and the suspension was incubated on ice for 30 min. The lysates were cleared by centrifugation (30 min, 14×10^3 rpm, 4° C.), and the resulting supernatants analyzed for protein content. […]

[6] = system: Jurkat and THP-1 cells; experiment: TNFα secretion by PMA/PHA induced Jurkat and THP-1 cells; format: cell-based, human; conditions: 48 hours, ELISA
Method: Jurkat cells human T cell lymphoma line) (2×10^6 cells/ml) cultured in RPMI-1640 supplemented with 10% FCS were activated with PMA (50 ng/ml) and phytohaemagglutinin PHA (4 µg/ml) for 6 hours at 37° C. (7.5% CO2-humidified atmosphere). Thereafter, the cells were washed, plated on 24-well plates (10^6 cells/well in 0.5 ml), and incubated (1 hour at 37° C., 7.5% CO2-humidified atmosphere) with the indicated concentrations of peptides 1-5. Following the incubation, THP-1 cells (human monocytic cell line derived from a patient with acute monocytic leukaemia; 1.25×10^5 cells/0.5 ml/well) were added to the wells. After 48 hours, the supernatants were collected and their TNF[…] content was determined by ELISA using anti TNF[…] mAb (Pharmingen; San Diego, Calif.) according to the manufacturer's instructions.

[7] = system: T cells; experiment: Chemotaxis assay: T cell migration toward SDF-1α; format: cell-based; conditions: SDF-1α 250 ng/ml, 3 hr
Method: The migration of ^51-[Cr]-labeled T cells was examined in […] Transwell chemotaxis apparatus (6.5-mm diameter; Corning, N.Y.), consisting of two compartments separated by polycarbonate filters (5 μm pore size) pretreated (1 hr, 37° C.) with FN (25 μg/ml). ^51-[Cr]-labeled T cells (2×10^5 in 100 μl of RPMI containing 0.1% BSA and antibiotics), which were pre-incubated with the indicated concentrations of peptides (30 min, 37° C.), were added to the upper chambers. The bottom chambers contained 0.6 ml of the same media, with or without human Stromal cell-Derived Factor-1α (SDF-1α; 250 ng/ml). After incubation at 37° C. for 3 hr (7.5% CO2-humidified atmosphere), cells that had transmigrated into the lower wells were collected, centrifuged, and lysed (in 100 μl of distilled water containing 1 M NaOH and 0.1% Triton X-100), and the radioactivity in the resulting supernatants was determined with a γ-counter. The percentage (±SD) of cell migration was calculated as the radioactivity counts in the lysates of the lower chambers (representative of the migrating cells) divided by the total counts (representative of 2×10^5 cells).

[8] = Stability to serum proteases (HPLC); format: in vitro ADME, mouse
Method: To test the stability of peptide No. 5 to blood proteases, 100 μl of a 1 mg/ml solution of the peptide were incubated at 37° C. with 40 μl of mouse serum. Samples withdrawn after 0, 2, 4 or 24 hours were precipitated with 200 μl of methanol and centrifuged for 1 min at 10,000×g. The crude solution was analyzed by HPLC equipped with a 220 nm detector. The crude solution was diluted in 0.1% trifluoroacetic acid (TFA), applied on a RP-18^e column (Chromolith) (MERCK, Darmstadt, Germany), and the HPLC conditions were as follows: mobile phase A, TFA (0.1%) in water; mobile phase B: TFA (0.1%) in acetonitrile (75%). The flow rate was 3 ml/min and the gradient was 0 to 100% B for the first 10 min, 100% B for additional 5 min, and for the last 5 min the gradient was 100% B to 0.

[9] = FIG. 1, peptides by implanted osmotic pump, 0.2 μg/hour for 7 days
[10] = FIG. 2, peptides subcutaneously 1 μg or 10 μg per mouse every day

| Molecule | inhibition of DTH response [2, 9] | inhibition of DTH response [2, 10] | inhibition of anti-CD3 antibody induced IFNγ secretion from T cells [3] | inhibition of anti-CD3 antibody induced TNFα secretion from T cells [4] | further results |
| --- | --- | --- | --- | --- | --- |
| C[C@@H]1C[C@H]2[C@@H]3CCC4=CC(=O)C=C[C@]4(C)[C@@]3(F)[C@@H](O)C[C@]2(C)[C@@]1(O)C(=O)CO [Dexamethasone, reference compound] | ~70% | ~70% |  |  | Wallace score (macroscopic inflammation score, scale 0 to 10) [1]: 2.9±1 |
| ALTDMPQM [compound 7, residues 250-257 of Fibrinogen Aα; identified in wound fluids, then synthesized] |  | hardly inhibited | 30% | 30% |  |
| DHSKNPVGV [compound 8, residues 320-328 of ADAM 8; identified in wound fluids, then synthesized] |  | 60% | 15% | 30% |  |
| ELERPGGNEI [compound 6, residues 260-269 of Fibrinogen Aα; identified in wound fluids, then synthesized] |  | 50% | 40% | 40% | NF-κB translocation to the nucleus [5]: significant down-regulation |
| MIESSMN [compound 1, residues 827-833 of LRP5; identified in wound fluids, then synthesized] | hardly inhibited |  |  |  | inhibition of TNFα secretion by Jurkat and THP-1 cells ([6]; concentration range 1-1000 ng/ml): did not exert a significant inhibition; inhibition of T cell transmigration toward SDF-1α ([7]; concentration range 10-1000 ng/ml): did not show a significant inhibition |
| NDADDST [compound 9, residues 302-308 of Cadherin 4; identified in wound fluids, then synthesized] |  | hardly inhibited | 40% | ~50% |  |
| NPDESSKPNMI [peptide No. 5, NPDESSKPNMI] |  |  |  |  | % Area (HPLC peak of peptide) ([8]; Test 1, 0 hours incubation with mouse serum): 74.23%; % Area (HPLC peak of peptide) ([8]; Test 1, 2 hours incubation at 37° C. with mouse serum): 75.08%; % Area (HPLC peak of peptide) ([8]; Test 1, 4 hours incubation at 37° C. with mouse serum): 68.94%; % Area (HPLC peak of peptide) ([8]; Test 1, 24 hours incubation at 37° C. with mouse serum): 68.69%; % Area (HPLC peak of peptide) ([8]; Test 2, 0 hours incubation with mouse serum): 90.62%; % Area (HPLC peak of peptide) ([8]; Test 2, 2 hours incubation at 37° C. with mouse serum): 87.32%; resistance to serum proteases ([8]; mouse serum, up to 24 hours): highly resistant; metabolised at 2 h, 0.71 mg/ml ([8]; mouse, mouse serum, after 2 hours (test 2), read-out: peptide degraded in the presence of mouse serum): ~3.5%; metabolised at 4 h, 0.71 mg/ml ([8]; mouse, mouse serum, after 4 hours (test 1), read-out: peptide degraded in the presence of mouse serum): 7.5%; metabolised at 24 h, 0.71 mg/ml ([8]; mouse, mouse serum, after 24 hours (test 1), read-out: peptide degraded in the presence of mouse serum): 7.5%; remaining at 24 h, 0.71 mg/ml ([8]; mouse, mouse serum, after 24 hours of exposure to serum proteases, read-out: peptide still present as an intact peptide): > 90% |
| NQGEESAEI [compound 10, residues 470-478 of Calcitonin receptor; identified in wound fluids, then synthesized] |  | 30% | 75% | ~70% |  |
| TDYGKDLMEKV [peptide No. 4, residues 42-52 of Apo A-II; identified in wound fluids, then synthesized] | hardly inhibited |  | ~50% | ~50% | inhibition of TNFα secretion by Jurkat and THP-1 cells compared to PMA/PHA alone ([6]; peptide 1 μg/ml): 40%; inhibition of T cell migration toward SDF-1α ([7]; peptide 1000 ng/ml): 30% |
